US20100216722A1, “USE OF THE PEPTIDE PRO-GLY-THR-CYS-GLU-ILE-CYS-ALA-TYR-ALA-ALA-CYS-THR-GLY-CYS AS A THERAPEUTIC AGENT” (priority 2007, published 2010)
Positions of bridges follow the written chain, without caps; N, C: chain ends. Residues, ends and D or L forms follow the SMILES beside them.

How the values were obtained:
HepG2-2.2.15 cells = assay: Cytotoxicity in HepG2-2.2.15 cells (dye uptake cell viability); details: HepG2-2.2.15 cells; peptide 10 micrograms per ml; dye uptake assay
HIV-1IIIB = assay: HIV-1 antiviral assay (CPE reduction, MTS) in CEM-SS cells; format: cell-based; details: peptide 10 micrograms per ml, 6 days post-infection
HCMV strain AD169 = assay: HCMV plaque reduction assay in MRC-5 cells; details: HCMV AD169 in MRC-5 cells; peptide 10 micrograms per ml; 7-10 days
MRC-5 cells = details: human, 6 days
Procedure: (§2) For cytotxicity testing, MRC-5 cells were seeded at 2,500 cells/well in 96 well plates using growth medium. […] The following day, peptide was added and tested in duplicates. After a 6 days incubation period, cell viability was measured using CellTiter 96 Solution (Promega). Plates were incubated for additional 4 hours at 37° C. Adhesive plate sealers were used in place of lids, the sealed plates were inverted several times to mix the soluble formazan product and the plate was read spectrophotometrically at 490/560 nm with a Molecular Devices Vmax plate reader.

RAW 264.7 cells = assay: Phagocytosis assay (Fluorescein-labeled Escherichia coli, flow cytometry); format: cell-based, mouse; details: peptide 10 micrograms per ml, 30 min before Fluorescein-labeled E. coli
Procedure: Cells were incubated in 12×75 mm tubes at 37° C. with test peptide—10 micrograms per ml—for 30 min prior to adding Fluorescein-labeled Escherichia coli bacteria as the agent to be ingested. […] The samples were then analyzed by flow cytometry to determine the amount of phagocytosis as a function of brightness (the greater the phagocytic activity, the more fluorescence in the macrophage population). Data are reported as % positive and the mean fluorescence intensity (MFI) of positively stained cells.

[1] = system: macrophages differentiated from human PBMC; assay: TNF alpha production assay (LPS-stimulated macrophages, ELISA); format: cell-based; details: peptide 10 micrograms per ml, 30 min before lipopolysaccharide 200 ng/ml, overnight
Procedure: Human Peripheral Blood Mononuclear Cells (PBMC) were obtained from normal human donors. The macrophages were prepared by adherence of PBMC to the plastic wells of the plates. After 8 days in culture in the presence of recombinant human macrophage-colony stimulating factor at 2 ng/ml, differentiated macrophages were preincubated with test peptide—10 micrograms per ml—for 30 min, followed by in-well stimulation by the addition of lipopolysaccharide at a final concentration of 200 ng/ml. Not stimulated macrophages served as negative background control. After overnight incubation, supernatants from the control and LPS-stimulated cultures were harvested and assayed for TNF alpha production employing a TNF alpha specific ELISA.

[2] = system: hepatitis B virus (HBV) ayw strain; assay: HBV replication assay in HepG2-2.2.15 cells (TaqMan PCR of secreted HBV DNA); format: cell-based; details: peptide 10 micrograms per ml, six days, HBV DNA in supernatant
[3] = system: Primary Human endothelial cells (HUVEC); assay: Endothelial cell migration assay; format: cell-based; details: peptide 10 micrograms per ml, 22 hours
Procedure: Endothelial cell migration is a prerequisite for the process of neo-vascularization or angiogenesis which is crucial for on-site recruitment of blood vessel formation. […] Thereafter, designated concentration of test peptide—10 micrograms per ml—was added in duplicate wells. The endothelia were allowed to migrate for 22 hours at 37° C., then, migrated cells were fixed and stained with Hoechst 33342 dye. Images of 3 fields per insert were taken and the number of migrated cells per field were quantified using the ImageProPlus software. Data were analyzed for the average number of the migrated cells and standard deviation of six data points for each treatment condition. Active test peptide against HUVEC migration was determined based on 50% inhibition of migrated cells as compared with the control. Statistic p values were computed using the Student's t-test.

in vitro [4] = details: human, MRC-5 cells (embryonal lung fibroblasts)
Procedure: as §2

A549 cells [5] = assay: Apoptosis induction assay (Annexin-5); format: cell-based, human; details: apoptosis in A549 cells, peptide 10 micrograms per ml, 24 hours
Text: Human A549 cells (carcinomic human alveolar basal epithelial cells) were utilized in the experiments employing the Annexin-5 apoptosis assay. Annexin-5 is a member of a highly conserved protein family that binds acidic phospholipids in a calcium-dependent manner. […] Phosphatidylserine is translocated from the inner side of the plasma membrane to the outer layer when cells undergo death by apoptosis or cell necrosis and serves as a signal by which cell destined for death are recognized by phagocytes. Test peptide—10 micrograms per ml—were exposed for 24 hours to the A549 cells before they were analyzed for signs of apoptosis.

HUVEC = assay: Endothelial tube formation assay; format: cell-based, human; details: peptide 10 micrograms per ml, 20 hours
Procedure: The endothelial tube formation assay is based on the ability of endothelial cells to form three-dimensional capillary-like tubular structures when cultured on a gel of basement membrane extract. The endothelial tube formation assay represents a powerful model for studying inhibition and induction of angiogenesis. Pre-labeled HUVEC with Calcein AM were seeded in a 96-well culture plate coated with extracellular metrix (Chemicon international Cat. ECM625) and treated with test peptide—10 micrograms per ml—in full growth medium. Positive control wes vehicle only. The endothelial cells were allowed to form tubes foe 20 hours and were then examined under an inverted fluorescent microscope. Duplicate wells for each treatment were photographed and quantitatively analyzed for an average tubule length using image analysis software ImageProPlus. Raw data were expressed as average tubule lengths in pixels±standard deviation. Statistic p values were computed using the Student's t-test.

A549 cells [6] = assay: Propidium iodide cell cycle assay; format: cell-based, human; details: peptide 10 micrograms per ml, 24 hours, Propidium iodide FACS
Procedure: Human A549 cells (carcinomic human alveolar basal epithelial cells) were utilized in the experiments employing the Propidium iodide cell cycle assay. The eukaryotic cell cycle is a series of events that take place in a cell leading to its replication. Propidium iodide is an intercalating agent and a fluorescent molecule that can be used to stain DNA. Cells were incubated for 24 hours with test peptide—10 micrograms per ml—or left untreated. […] The cells were pipetted into 2.5 ml absolute EtOH (final concentration approx. 70%) and incubated on ice for 15 min. Thereafter, cells were pelleted at 1500 rpm for 5 min and resuspended in Propidium iodide solution in PBS. After incubation for 40 min at 37° C., cells were analyzed in the FACS.

[7] = Cytotoxicity in HepG2-2.2.15 cells (dye uptake cell viability); details: human
[8] = system: Human Peripheral Blood Mononuclear Cells (PBMC); assay: T cell proliferation assay (PHA, 3H-thymidine); format: cell-based; details: peptide 10 micrograms per ml, 3H-thymidine incorporation
Procedure: (§1) Human Peripheral Blood Mononuclear Cells (PBMC) were obtained from normal human donors. The T cell proliferation was induced by stimulation of the cells with the T cell mitogen phytohemagglutinin (PHA), either in the absence (positive proliferation control), or in the presence of test peptide—10 micrograms per ml—to examine their effects on the T cell proliferating response. 10^5/well PBMC were plated in 96-well microtiter plates and assayed in duplicate with the peptide. Cell cultures were incubated at 37° C. for 3 days in a 5% CO2 incubator and were thereafter pulsed with 1 microCi/well ^3H-thymidine for additional 12 hours of culture. At the end of incubation time, the plates were harvested and the cells counted by liquid scintillation for the incorporation of ^3H-thymidine as a measure of T cell proliferation.

A549 cells [9] = assay: Apoptosis prevention assay (C2 ceramide, Annexin-5); format: cell-based, human; details: A549 cells pretreated 30 min with peptide 10 micrograms per ml, then C2 ceramide
Text: Human A549 cells (carcinomic human alveolar basal epithelial cells) were utilized in the experiments employing the Annexin-5 apoptosis assay. Annexin-5 is a member of a highly conserved protein family that binds acidic phospholipids in a calcium-dependent manner. […] Phosphatidylserine is translocated from the inner side of the plasma membrane to the outer layer when cells undergo death by apoptosis or cell necrosis and serves as a signal by which cell destined for death are recognized by phagocytes. A549 cells were pretreated for 30 min with test peptide—10 micrograms per ml—followed by the exposure to C2 ceramide. Ceramide mediates cell apoptosis through the activation of the mitogen activating protein kinase (MAPK) and the stress activated kinase (JNK/SAPK). C2 ceramide is a synthetic, membrane soluble analog of ceramide.

[10] = system: Human Peripheral Blood Mononuclear Cells (PBMC); assay: B cell proliferation assay (SAC plus Interleukin-2, 3H-thymidine); format: cell-based; details: peptide 10 micrograms per ml, 3H-thymidine incorporation
Procedure: as §1, with “The B” for “The T”, “the B” for “the T”, “mitogen Staphylococcus aureus Cowans I (SAC) plus Interleukin-2,” for “mitogen phytohemagglutinin (PHA),”, “cell” for “cell proliferating”, “of B” for “of T”

[11] = system: spleen cells of Ovalbumin-immunized Balb/c mice; assay: Th1/Th2 cytokine profiling assay (Ovalbumin-restimulated spleen cells, CBA kit); format: cell-based, mouse; details: peptide 10 micrograms per ml; Ovalbumin restimulation; 72 hours
Procedure: The Balb/c mice (originated in 1923, it is a popular strain and is used in many different research disciplines. […] On day 50, spleens of the mice were harvested (3 weeks after last boost with Ovalbumin). Cells were cultured (2×10^5/well in triplicate) and incubated with culture medium or test peptide—10 micrograms per ml—for 30 min. Thereafter, additional Ovalbumin was added to the cells at 10 micrograms/ml for in vitro restimulation of the cells. 72 hours later, cell supernatants were harvested and assayed using the Becton Dickinson Mouse Th1/Th2 Cytokine CBA Kit. This kit can be used to measure Interleukin-2 (IL-2), Interleukin-4 (IL-4), Interleukin-5 (IL-5), Interferon-γ (IFN-γ), and Tumor Necrosis Factor-α (TNF-α) protein levels in a single sample. The kit performance has been optimized for analysis of physiologically relevant concentrations (pg/ml levels) of specific cytokine proteins in tissue culture supernatants and serum samples.

in vitro [12] = details: human, CEM-SS cells

Compound: Nc1ccn([C@@H]2CS[C@H](CO)O2)c(=O)n1 [3TC, Lamivudine, reference compound]
- % Cell viability (HepG2-2.2.15 cells): 95.8%

Compound: Cc1cn([C@H]2C[C@H](N=[N+]=[N-])[C@@H](CO)O2)c(=O)[nH]c1=O [AZT, zidovudine]
- % CPE reduction in HIV-1 infected CEM-SS cells (HIV-1IIIB): 99%

Compound: Nc1nc(O)c2ncn(COC(CO)CO)c2n1 [Ganciclovir, reference compound]
- % plaque reduction (HCMV strain AD169): 100%
- % Cell viability (MRC-5 cells): 100%

Compound: CC[C@H](C)[C@@H]1NC(=O)[C@H](CCC(=O)O)NC(=O)[C@@H](NC(=O)[C@@H](NC(=O)CNC(=O)[C@@H]2CCCN2)[C@@H](C)O)CSSC[C@@H]2NC(=O)[C@H](C)NC(=O)[C@H](C)NC(=O)[C@H](Cc3ccc(O)cc3)NC(=O)[C@H](C)NC(=O)[C@H](CSSC[C@@H](C(=O)O)NC(=O)CNC(=O)[C@H]([C@@H](C)O)NC2=O)NC1=O [Guanylin, Pro-Gly-Thr-Cys-Glu-Ile-Cys-Ala-Tyr-Ala-Ala-Cys-Thr-Gly-Cys-OH] (H-PGTCEICAYAACTGC-OH; disulfide 4-12, 7-15 (inferred); N-terminus assumed)
- % of control phagocytosis (RAW 264.7 cells): 105.9%
- % of LPS induction [1]: 96.6%
- % inhibition of HBV replication in HEP G2 cells [2]: 21.7%
- % plaque reduction (HCMV strain AD169): 0.0%
- % inhibition of migration [3]: 24.0%
- viability at 144 h (in vitro [4]): 100%
- % CPE reduction in HIV-1 infected CEM-SS cells (HIV-1IIIB): 13.2%
- % of induction (A549 cells [5]): 1.5%
- % inhibition of tube formation (HUVEC): 10.0%
- Cell cycle analysis G0/G1 (A549 cells [6]): 58.7
- Cell cycle analysis G2/M (A549 cells [6]): 9.8
- Cell cycle analysis S (A549 cells [6]): 31.5
- viability at 144 h, 10 micrograms per ml [7]: 91.2%
- % of PHA induced control [8]: 93.7%
- % prevention of ceramide induced apoptosis (A549 cells [9]): 0.0%
- % of SAC/IL2 induced control [10]: 97.0%
- IFNγ spleen cells; TH1 response (% of control) [11]: 62.0 % of control
- IL-2 spleen cells (% of control) [11]: 135.5 % of control
- IL-4 spleen cells; TH2 response (% of control) [11]: 143.8 % of control
- IL-5 spleen cells; TH2 response (% of control) [11]: 82.6 % of control
- TNF-a spleen cells; TH1 response (% of control) [11]: 108.5 % of control
- viability at 10 micrograms per ml (in vitro [12]): 100%

Compound: CC(C)(C)NC(=O)[C@@H]1CN(Cc2cccnc2)CCN1C[C@@H](O)C[C@@H](Cc1ccccc1)C(=O)N[C@H]1c2ccccc2C[C@H]1O [Indinavir, indinavir]
- % CPE reduction in HIV-1 infected CEM-SS cells (HIV-1IIIB): 100%
